Test systems include KM12 colon; DMS 114 small cell lung; LXFL 529 NSCLC; SR leukemia; SN12C renal; M19-MEL melanoma; SNB-78 CNS; MALME-3M melanoma; MDA-MB-435; DMS 273 small cell lung.
What all share (assay): NCI tumour cell line growth inhibition, 48 h

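These data come from cells grown in 96-well plates and exposed to compound for 48 hours at five concentrations. TGI: total growth inhibition.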

On to `CCOC(=O)/C=C/c1ccccn1`, for which the TGI with KM12 colon, in the test with DMS 114 small cell lung, in the test on LXFL 529 NSCLC, in the test on SR leukemia, with SN12C renal and with M19-MEL melanoma was > 100 µM each time. The TGI in the test on SNB-78 CNS and with MALME-3M melanoma was > 100 µM in each case.
In the case of `Cc1n[nH]c(=O)n1N1C(=O)c2ccccc2C1=O`, the TGI in the test with MDA-MB-435, in the test with KM12 colon, in the test on SR leukemia, in the test with SN12C renal and in the test on MALME-3M melanoma was > 100 µM in each case.
With `N#Cc1c2nc3ccccc3nc2n2ccc3ccccc3c12`, the TGI with KM12 colon, with DMS 114 small cell lung, with LXFL 529 NSCLC, in the test with SN12C renal, with M19-MEL melanoma and in the test with SNB-78 CNS was > 100 µM each time. Further, the TGI in the test with MALME-3M melanoma and in the test on DMS 273 small cell lung was > 100 µM each time.
`C/C(=N/N)c1ccc2[nH]c3c(C)cc([N+](=O)[O-])c(C)c3c2c1`: the TGI with DMS 114 small cell lung was 25.8 µM; with SN12C renal it was 15.8 µM; in the test with M19-MEL melanoma it was 27.1 µM; in the test on MALME-3M melanoma, 16.4 µM; with DMS 273 small cell lung, 17.4 µM.
For the compound `COc1cc(C=O)c(-c2cc3c(cc2C=O)OCO3)c(OC)c1OC`, the TGI is 159 µM in the test on KM12 colon; > 290 µM in the test with DMS 114 small cell lung; > 290 µM in the test on LXFL 529 NSCLC; > 290 µM in the test on SR leukemia; 260 µM in the test on SN12C renal; > 290 µM in the test with M19-MEL melanoma. For the same compound, the TGI in the test on MALME-3M melanoma and in the test with DMS 273 small cell lung was > 290 µM throughout.
In the case of `COC1(C)C=NCC(C)(C)NC(=O)C(C)(OC)C=NCC(C)(C)NC1=O` (stereo unspecified), the TGI in the test with MDA-MB-435, in the test on KM12 colon, with SR leukemia, with SN12C renal and in the test on MALME-3M melanoma was > 10 µM in each case.
As to `Cc1cc(-c2ccccc2)cc2[n+]1CC=C2`, the TGI in the test on KM12 colon, with DMS 114 small cell lung, in the test with LXFL 529 NSCLC, in the test with SN12C renal, in the test with M19-MEL melanoma and in the test with SNB-78 CNS was > 100 µM throughout. Moreover, the TGI in the test on MALME-3M melanoma and with DMS 273 small cell lung was > 100 µM throughout.
As to `Cc1nn(C)c2c1C(=O)N(C)CC(=O)N2C`, the TGI in the test on MDA-MB-435, in the test with KM12 colon, in the test on SR leukemia, in the test with SN12C renal and in the test on MALME-3M melanoma was > 100 µM in each case.
As to `CC1OC(OC2CC(O)(C(=O)CO)Cc3c(O)c4c(c(O)c32)C(=O)c2ccccc2C4=O)CC(N)C1O` (stereo unspecified), the TGI in the test on MDA-MB-435 is 1.49 µM; in the test on KM12 colon, 4.59 µM; in the test on DMS 114 small cell lung, 0.0412 µM; with LXFL 529 NSCLC, 0.347 µM; with SN12C renal it was 0.887 µM; with M19-MEL melanoma, 0.15 µM. Moreover, the TGI was 0.898 µM with SNB-78 CNS, 0.0864 µM in the test with MALME-3M melanoma and < 0.0278 µM with DMS 273 small cell lung.
Take `O=C(c1ccccc1)c1c(CNCc2ccccc2)n(C(=O)c2ccccc2)c2ccccc12`: the TGI is 87.8 µM in the test with KM12 colon; > 100 µM with DMS 114 small cell lung; > 100 µM in the test on LXFL 529 NSCLC; 80.7 µM in the test with SR leukemia; > 100 µM in the test with M19-MEL melanoma; > 100 µM with MALME-3M melanoma. For the same compound, in the test with DMS 273 small cell lung, the TGI is > 100 µM.
For `O=C(O)C(F)(OC(F)(F)C(F)(OC(F)(F)C(F)(F)C(F)(F)F)C(F)(F)F)C(F)(F)F` (stereo unspecified), the TGI with MDA-MB-435, with KM12 colon, in the test with SR leukemia, with SN12C renal and with MALME-3M melanoma was > 100 µM in each case.
With `CCOC1SC(SC)=NN1C(=O)C(OC(C)=O)C(OC(C)=O)C(OC(C)=O)C(OC(C)=O)C(=O)N1N=C(SC)SC1OCC` (stereo unspecified), the TGI with MDA-MB-435, in the test on KM12 colon, with SR leukemia, in the test with SN12C renal and in the test with MALME-3M melanoma was > 100 µM in each case.
With `O=C1O[C@H]2[C@@H]3OC(=O)c4cc(O)c(O)c(O)c4-c4c(cc(O)c(O)c4O)C(=O)OC[C@H]2O[C@@H](OC(=O)c2cc(O)c(O)c(O)c2)[C@@H]3OC(=O)c2cc(O)c(O)c3c2[C@@H]2C1=CC(=O)C(O)(O)C2(O)O3` (stereo partly specified), the TGI in the test on MDA-MB-435 is 32.2 µM; in the test with KM12 colon, 80.1 µM; in the test on SR leukemia, > 100 µM; in the test with SN12C renal it was 32.3 µM; with MALME-3M melanoma, > 100 µM.
As to `O=C1C[C@H]2[C@H](c3ccc(Br)cc3)[C@H]3C(=O)c4ccccc4NC(=O)[C@@H]3[C@@]2(O)c2ccccc2N1`, the TGI is 26.9 µM in the test with MDA-MB-435; 43.8 µM in the test on KM12 colon; 90.8 µM in the test with SR leukemia; > 100 µM in the test on SN12C renal; 45.5 µM in the test with MALME-3M melanoma.
In the case of `CC[C@@]1(O)C(=O)OCc2c1cc1n(c2=O)Cc2c-1nc1ccccc1c2/C=N\NC(=O)C(C)N` (stereo partly specified), the TGI in the test on MDA-MB-435 was > 100 µM; with KM12 colon it was > 100 µM; in the test with SR leukemia it was 0.119 µM; in the test on SN12C renal, 11.1 µM; in the test with MALME-3M melanoma it was > 91.9 µM.
For `C/C(=N\Nc1nc2ccccc2o1)c1ccncn1`, the TGI was > 75.8 µM with MDA-MB-435; 11.6 µM in the test with KM12 colon; > 100 µM with SR leukemia; > 100 µM in the test with SN12C renal; 97.5 µM with MALME-3M melanoma.
`COC(=O)[C@@H]1C[C@]2(CC=C(C)C)c3ccccc3N(S(=O)(=O)c3ccccc3)[C@@H]2N1C(=O)OC`: the TGI in the test on MDA-MB-435 is 45 µM; with KM12 colon it was > 100 µM; in the test with SR leukemia, 99.3 µM; with SN12C renal, > 100 µM; with MALME-3M melanoma, > 100 µM.
For `CC1=NN(C(=O)Cc2ccccc2)C(=O)/C1=C\c1ccco1`, the TGI with KM12 colon, in the test with DMS 114 small cell lung, in the test on SR leukemia, in the test on SN12C renal, in the test with M19-MEL melanoma and in the test on SNB-78 CNS was > 100 µM in each case. Also, the TGI in the test on MALME-3M melanoma and with DMS 273 small cell lung was > 100 µM in each case.

(Values after PubChem BioAssay (NCI).)
